Laboratory results published in patent US7709516B2, “Helix 12 directed non-steroidal antiandrogens” (Endorecherche, Inc., priority 2005, dated 2010).
Where two headings read alike, the source gives them in different places.

Experiments:
[1] = system: rat prostate, seminal vesicle, levator ani muscle; assay: Systemic antiandrogenic activity in orchidectomized immature male rats with DHT implant; format: in vivo; conditions: Rattus norvegicus, 168 h, rat +DHT, 0.5 mg/animal daily 7 days
Human Androgen Receptor = biological target: T1, Human Androgen Receptor (Homo sapiens, UniProt P10275); assay: Androgen receptor binding assay ([3H]R1881, HAP) in cytosol of HEK-293 cells transfected with hAR; conditions: relative to R1881 = 100, transfected cells
T1 sequence (P10275 1-920): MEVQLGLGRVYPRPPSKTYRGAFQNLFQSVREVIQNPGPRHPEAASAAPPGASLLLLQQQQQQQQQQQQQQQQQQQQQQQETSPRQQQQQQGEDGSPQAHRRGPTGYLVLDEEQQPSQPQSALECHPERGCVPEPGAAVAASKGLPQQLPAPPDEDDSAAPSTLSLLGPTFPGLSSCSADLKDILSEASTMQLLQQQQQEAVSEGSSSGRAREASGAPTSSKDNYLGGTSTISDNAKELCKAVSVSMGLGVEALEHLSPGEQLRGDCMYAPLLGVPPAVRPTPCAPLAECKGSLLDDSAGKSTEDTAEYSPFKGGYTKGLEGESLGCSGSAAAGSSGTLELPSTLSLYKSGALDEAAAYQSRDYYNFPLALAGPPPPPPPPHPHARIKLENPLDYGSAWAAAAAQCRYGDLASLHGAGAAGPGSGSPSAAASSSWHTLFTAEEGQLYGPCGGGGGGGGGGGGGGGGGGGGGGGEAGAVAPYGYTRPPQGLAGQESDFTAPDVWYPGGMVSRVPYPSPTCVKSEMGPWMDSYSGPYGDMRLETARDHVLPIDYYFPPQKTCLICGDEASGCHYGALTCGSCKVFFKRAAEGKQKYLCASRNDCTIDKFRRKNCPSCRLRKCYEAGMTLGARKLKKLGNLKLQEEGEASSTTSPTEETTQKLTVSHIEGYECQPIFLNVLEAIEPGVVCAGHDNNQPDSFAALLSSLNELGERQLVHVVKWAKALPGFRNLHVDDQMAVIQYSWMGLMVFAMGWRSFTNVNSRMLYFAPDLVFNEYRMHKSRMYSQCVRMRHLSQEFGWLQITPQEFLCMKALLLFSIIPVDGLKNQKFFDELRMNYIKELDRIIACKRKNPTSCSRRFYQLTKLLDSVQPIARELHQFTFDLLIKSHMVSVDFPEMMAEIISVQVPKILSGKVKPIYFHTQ

[2] = system: Shionogi mouse mammary carcinoma cells; assay: Androgenic/antiandrogenic activity: inhibition of DHT-stimulated Shionogi cell number; format: cell-based; conditions: Mus musculus, DHT-stimulated Shionogi cell number
[3] = read-out: Lev Ani % inhibition, Table 1, s.c. or p.o. (route not marked), levator ani
[4] = read-out: Prostate % inhibition, Table 1, s.c. or p.o. (route not marked in cell)
[5] = read-out: SV % inhibition, Table 1, s.c. or p.o. (route not marked), seminal vesicle
[6] = read-out: Shionogi Antiandrogenic Activity IC50, Table 1
[7] = read-out: Lev Ani % inhibition, Table 2, s.c. or p.o. (route not marked), levator ani
[8] = read-out: Prostate % inhibition, Table 2, s.c. or p.o. (route not marked)
[9] = read-out: SV % inhibition, Table 2, s.c. or p.o. (route not marked), seminal vesicle
[10] = read-out: Shionogi Antiandrogenic Activity IC50, Table 2
[11] = Prostate cell, po, read-out: Lev Ani % inhibition, Table 1, p.o, levator ani
[12] = Prostate cell, po, read-out: SV % inhibition, Table 1, p.o, seminal vesicle
[13] = po, read-out: Prostate % inhibition, Table 1, p.o

SMILES	inhibition in vivo at 0.5 mg [1, 3]	inhibition in vivo at 0.5 mg [1, 4]	inhibition in vivo at 0.5 mg [1, 5]	Human Androgen Receptor Binding (%) RBA R1881 = 100 (Human Androgen Receptor; Table 1)	IC50 [2, 6]	inhibition in vivo at 0.5 mg [1, 7]	inhibition in vivo at 0.5 mg [1, 8]	inhibition in vivo at 0.5 mg [1, 9]	Human Androgen Receptor Binding (%) RBA R1881 = 100 (Human Androgen Receptor; Table 2)	IC50 [2, 10]	inhibition in vivo at 0.5 mg [1, 11]	inhibition in vivo at 0.5 mg [1, 12]	inhibition in vivo at 0.5 mg [1, 13]
CC1(C)C(=O)N(c2ccc(C#N)c(C(F)(F)F)c2)C(=S)N1CCCOc1ccc(CN2CCCC2)cc1 [EM-7232, 4-{4,4-Dimethyl-5-oxo-3-[3-(4-pyrrolidin-1-ylmethyl-phenoxy)-]-2-thioxo-imidazolidin-1-yl}-2-trifluoro-benzonitrile]	70%	45%	84%	19.0%	0.0076 µM								
CC1(C)C(=O)N(c2ccc(C#N)c(C(F)(F)F)c2)C(=S)N1CCCOc1ccc(CN2CCC(=O)C2)cc1 [EM-7371]	21%	16%	48%	53.0%	0.015 µM								
CC(C)N(C)Cc1ccc(OCCCN2C(=S)N(c3ccc(C#N)c(C(F)(F)F)c3)C(=O)C2(C)C)cc1 [EM-7233]	70%	54%	82%	15.0%	0.012 µM								
CC(C)NS(=O)(=O)c1ccc(OCCCN2C(=S)N(c3ccc(C#N)c(C(F)(F)F)c3)C(=O)C2(C)C)cc1 [EM-7957]	75%	44%	72%	5.9%	0.0176 µM								
CN(C)Cc1ccc(OCCCN2C(=S)N(c3ccc(C#N)c(Cl)c3)C(=O)C2(C)C)cc1 [EM-7821]	32%	50%	75%	6.1%	0.0052 µM								
CCS(=O)(=O)c1ccc(OCCC2(O)CCN(c3ccc(C#N)c(C(F)(F)F)c3)CC2)cc1 [EM-8230]						35%	0%	23%	<1.0%	0.0759 µM			
CC1(C)C(=O)N(c2ccc(C#N)c(C(F)(F)F)c2)C(=S)N1CCCOc1ccc(CN2CCSCC2)cc1 [EM-8344]				161.6%	0.0126 µM						51%	77%	50%
CC1(C)C(=O)N(c2ccc(C#N)c(C(F)(F)F)c2)C(=S)N1CCCOc1ccc(CN2CCOCC2)cc1 [EM-7248]	44%	37%	62%	32.4%	0.019 µM								
CCS(=O)(=O)c1ccc(OCCCN2C(=S)N(c3ccc(C#N)c(C(F)(F)F)c3)C(=O)C2(C)C)cc1 [EM-8188]				15.6%	0.0139 µM						68%	85%	45%
CC(C)NCc1ccc(OCCCN2C(=S)N(c3ccc(C#N)c(C(F)(F)F)c3)C(=O)C2(C)C)nc1 [EM-7848]	68%	51%	86%	0.5%	0.0114 µM								
N#Cc1ccc(N2CCC(O)(CCOc3ccc(-c4cccnc4)c(CN4CCCC4)c3)CC2)cc1C(F)(F)F [EM-8058]						6%	0%	2%	1.5%	0.0565 µM			
CC1(C)C(=O)N(c2ccc(C#N)c(Cl)c2)C(=S)N1CCCOc1ccc(S(C)(=O)=O)cc1 [EM-8360]				18.1%	0.0071 µM						82%	88%	56%
CC(C)NC(=O)c1ccc(OCCCN2C(=S)N(c3ccc(C#N)c(C(F)(F)F)c3)C(=O)C2(C)C)cc1 [EM-7202]	0%	26%	63%	37.0%	0.0365 µM								
CCC(NC(C)C)c1ccc(OCCCN2C(=S)N(c3ccc(C#N)c(C(F)(F)F)c3)C(=O)C2(C)C)cc1 (centres unmarked) [EM-7203]	4%	37%	66%	48.4%	0.0089 µM								
CC(c1ccc(OCCCN2C(=S)N(c3ccc(C#N)c(C(F)(F)F)c3)C(=O)C2(C)C)cc1)N(C)C (centres unmarked) [EM-7243]	73%	34%	72%	14.0%	0.014 µM								
N#Cc1ccc(N2CCC(O)(CCOc3cccc(CN4CCCC4)c3)CC2)cc1C(F)(F)F [EM-8059]						0%	1%	21%	1.0%	0.0689 µM			
CCCC(c1ccc(OCCC2(O)CCN(c3ccc(C#N)c(C(F)(F)F)c3)CC2)cc1)N1CCCC1 (centres unmarked) [EM-8096]						50%	8%	55%	6.9%	0.0196 µM			
CC1(C)C(=O)N(c2ccc(C#N)c(C(F)(F)F)c2)C(=S)N1CCCOc1ccc(CN2CCC(O)C2)cc1 (centres unmarked) [EM-7365]	19%	22%	43%	24.0%	0.006 µM								
N#Cc1ccc(N2CCC(O)(CCOc3ccc4oc(=O)ccc4c3)CC2)cc1C(F)(F)F [EM-8284]						21%	0%	0%	<1.0%	0.0128 µM			
CN(C)Cc1ccc(OCCCN2C(=S)N(c3ccc(C#N)c(C(F)(F)F)c3)C(=O)C2(C)C)cc1 [EM-7192]	0%	53%	75%	15.6%	0.0115 µM								
CN(C)Cc1ccc(OCCCN2C(=S)N(c3ccc(C#N)c(C(F)(F)F)c3)C(=O)C2(C)C)cn1 [EM-7927]	61%	32%	55%	2.4%	0.0069 µM								
CC(NC1CC1)c1ccc(OCCCN2C(=S)N(c3ccc(C#N)c(C(F)(F)F)c3)C(=O)C2(C)C)cc1 (centres unmarked) [EM-7169]	31%	45%	72%	21.7%	0.011 µM								
CCC(CC)NCc1ccc(OCCCN2C(=S)N(c3ccc(C#N)c(C(F)(F)F)c3)C(=O)C2(C)C)cc1 [EM-7144]	41%	45%	61%	14.0%	0.0225 µM								
Cc1cc(CN2CCCC2)ccc1OCCC1(O)CCN(c2ccc(C#N)c(C(F)(F)F)c2)CC1 [EM-7657]						55%	24%	41%	3.0%	0.022 µM			
CCC(c1ccc(OCCC2(O)CCN(c3ccc(C#N)c(C(F)(F)F)c3)CC2)c(C)c1)N1CCCC1 (centres unmarked) [EM-8003]						44%	11%	35%	6.4%	0.0223 µM			
